Assay results published in patent US20240360137A1 (Novartis AG, priority 2023, published 2024).

Columns and labels:
Experiment in all cases: CDKi biochemical assay (TR-FRET, phosphorylation of S780 on RB1 peptide)
CDK2/CyclinE1 = CDK2/CyclinE1 (Homo sapiens, UniProt P24941); conditions: CDK2/CyclinE1 100 pM, 1 mM ATP, 60 min at 25° C.
Summary of the method: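 CDK2/CyclinE1 (Avi-tag, 100 pM; CDK2 E. coli-expressed) phosphorylated His-MBP-RB1[773-924] (200 nM) at S780 with 1 mM ATP in HEPES pH 7.5/MgCl2/DTT, 60 min at 25° C. After EDTA quench, TR-FRET detection ran 3 h (Eu anti-p-RB S780, SA-APC). Apparent IC50 came from percent activity versus log concentration.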

CDK6/cyclinD3 = CDK6/cyclinD3 (Homo sapiens, UniProt Q00534); conditions: CDK6/cyclinD3 10 pM, 1 mM ATP, 60 min at 25° C.
Summary of the method: (§1)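 Avi-tagged, biotinylated CDK4/cyclinD1 (20 pM) or CDK6/cyclinD3 (10 pM) phosphorylates 200 nM His-MBP-RB1[773-924] at S780 with 1 mM ATP in HEPES pH 7.5/MgCl2, 60 min, 25° C. After EDTA quench, Eu anti-pRB(S780)/SA-APC TR-FRET is read after 3 h. Apparent IC50 comes from % activity versus log concentration.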

CDK4/cyclinD1 = CDK4/cyclinD1 (Homo sapiens, UniProt P11802); conditions: CDK4/cyclinD1 20 pM, 1 mM ATP, 60 min at 25° C.
Summary of the method: as §1

CDK1/CyclinB1 = CDK1/CyclinB1 (Homo sapiens, UniProt P06493); conditions: CDK1/CyclinB1 10 pM, 1 mM ATP, 60 min at 25° C.
Summary of the method: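 CDK1/CyclinB1 (10 pM, Avi-tagged, insect-cell expressed) phosphorylated S780 of His-MBP-RB1[773-924] (200 nM) with 1 mM ATP in HEPES pH 7.5, 10 mM MgCl2, 1 mM DTT, 60 min at 25 °C. After EDTA quench, TR-FRET detection (Eu anti-pRB S780, SA-APC) for 3 h; apparent IC50 from percent activity versus log concentration.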

| IC50 (CDK2/CyclinE1) [µM] | IC50 (CDK6/cyclinD3) [µM] | IC50 (CDK4/cyclinD1) [µM] | IC50 (CDK1/CyclinB1) [µM] | SMILES |
| --- | --- | --- | --- | --- |
| 0.015 | 7.13 | 4.41 | 1.81 | COCC(F)(F)COc1n[nH]cc1Nc1ncc2c(n1)N([C@@H]1CCC[C@@H](O)C1)C(=O)C21CC1 [Example 44, 2′-((3-(2,2-difluoro-3-methoxypropoxy)-1H-pyrazol-4-yl)amino)-7′-((1R,3R)-3-hydroxycyclohexyl)spiro[cyclopropane-1,5′-pyrrolo[2,3-d]pyrimidin]-6′(7′H)-one] |
| 0.011 | 3.5 | 1.23 | 0.77 | O=C1N([C@@H]2CCC[C@@H](O)C2)c2nc(Nc3c[nH]nc3OCC3(F)CC3)ncc2C12CC2 [Example 45, 2′-((3-((1-fluorocyclopropyl)methoxy)-1H-pyrazol-4-yl)amino)-7′-((1R,3R)-3-hydroxycyclohexyl)spiro[cyclopropane-1,5′-pyrrolo[2,3-d]pyrimidin]-6′(7′H)-one] |
| 0.109 | ≥ 10 | ≥ 10 | ≥ 10 | O=C1N([C@@H]2CCC[C@@H](O)C2)c2nc(Nc3c[nH]nc3OC3CN(CC(F)(F)F)C3)ncc2C12CC2 [Example 46, 7′-((1R,3R)-3-hydroxycyclohexyl)-2′-((3-((1-(2,2,2-trifluoroethyl)azetidin-3-yl)oxy)-1H-pyrazol-4-yl)amino)spiro[cyclopropane-1,5′-pyrrolo[2,3-d]pyrimidin]-6′(7′H)-one] |
| 0.022 | ≥ 10 | 1.54 | 3.25 | O=C1N([C@@H]2CCC[C@@H](O)C2)c2nc(Nc3c[nH]nc3OCC3(F)COC3)ncc2C12CC2 [Example 48, 2′-((3-((3-fluorooxetan-3-yl)methoxy)-1H-pyrazol-4-yl)amino)-7′-((1R,3R)-3-hydroxycyclohexyl)spiro[cyclopropane-1,5′-pyrrolo[2,3-d]pyrimidin]-6′(7′H)-one] |
| 0.015 | ≥ 10 | 9.77 | 2.64 | [2H]C([2H])([2H])Oc1n[nH]cc1Nc1ncc2c(n1)N([C@@H]1CCC[C@@H](O)C1)C(=O)C21CC1 [Example 49, 7′-((1R,3R)-3-hydroxycyclohexyl)-2′-((3-(methoxy-d3)-1H-pyrazol-4-yl)amino)spiro[cyclopropane-1,5′-pyrrolo[2,3-d]pyrimidin]-6′(7′H)-one] |
| 0.125 | ≥ 10 | ≥ 10 | ≥ 10 | CN1C[C@@H](F)[C@H](Oc2n[nH]cc2Nc2ncc3c(n2)N([C@@H]2CCC[C@@H](O)C2)C(=O)C32CC2)C1 [Example 50, 2′-((3-(((3R,4R)-4-fluoro-1-methylpyrrolidin-3-yl)oxy)-1H-pyrazol-4-yl)amino)-7′-((1R,3R)-3-hydroxycyclohexyl)spiro[cyclopropane-1,5′-pyrrolo[2,3-d]pyrimidin]-6′(7′H)-one] |
| 0.119 | ≥ 10 | ≥ 10 | ≥ 10 | CN1C[C@H](Oc2n[nH]cc2Nc2ncc3c(n2)N([C@@H]2CCC[C@@H](O)C2)C(=O)C32CC2)[C@@H](F)C1 [Example 51, 2′-((3-(((3S,4S)-4-fluoro-1-methylpyrrolidin-3-yl)oxy)-1H-pyrazol-4-yl)amino)-7′-((1R,3R)-3-hydroxycyclohexyl)spiro[cyclopropane-1,5′-pyrrolo[2,3-d]pyrimidin]-6′(7′H)-one] |
| 0.011 | ≥ 10 | 8.5 | 1.43 | O=C1N([C@@H]2CCC[C@@H](O)C2)c2nc(Nc3c[nH]nc3OC3CC3)ncc2C12CC2 [Example 55] |
| 0.01 | 6.28 | 3.13 | 0.8 | O=C1N([C@@H]2CCC[C@@H](O)C2)c2nc(Nc3c[nH]nc3OCC(F)(F)F)ncc2C12CC2 [Example 56, 7′-((1R,3R)-3-hydroxycyclohexyl)-2′-((3-(2,2,2-trifluoroethoxy)-1H-pyrazol-4-yl)amino)spiro[cyclopropane-1,5′-pyrrolo[2,3-d]pyrimidin]-6′(7′H)-one] |
| 0.043 | ≥ 10 | ≥ 10 | 3.69 | O=C1N([C@@H]2CCC[C@@H](O)C2)c2nc(Nc3c[nH]nc3O[C@@H]3CCOC3)ncc2C12CC2 [Example 63, 7′-((1R,3R)-3-hydroxycyclohexyl)-2′-((3-(((R)-tetrahydrofuran-3-yl)oxy)-1H-pyrazol-4-yl)amino)spiro[cyclopropane-1,5′-pyrrolo[2,3-d]pyrimidin]-6′(7′H)-one] |

Further lines, the compound ahead of its results:

| SMILES | IC50 (CDK2/CyclinE1) [µM] | IC50 (CDK6/cyclinD3) [µM] | IC50 (CDK4/cyclinD1) [µM] | IC50 (CDK1/CyclinB1) [µM] |
| --- | --- | --- | --- | --- |
| O=C1N([C@@H]2CCC[C@@H](O)C2)c2nc(Nc3c[nH]nc3-c3cnn4c3CCC4)ncc2C12CC2 [Example 47, 2′-((3-(5,6-dihydro-4H-pyrrolo[1,2-b]pyrazol-3-yl)-1H-pyrazol-4-yl)amino)-7′-((1R,3R)-3-hydroxycyclohexyl)spiro[cyclopropane-1,5′-pyrrolo[2,3-d]pyrimidin]-6′(7′H)-one] | 0.027 | 7.55 | 6.38 | ≥ 10 |
| CC(=O)N1CC2(CC(COc3n[nH]cc3Nc3ncc4c(n3)N([C@@H]3CCC[C@@H](O)C3)C(=O)C43CC3)C2)C1 [Example 53, 2′-((3-((2-acetyl-2-azaspiro[3.3]heptan-6-yl)methoxy)-1H-pyrazol-4-yl)amino)-7′-((1R,3R)-3-hydroxycyclohexyl)spiro[cyclopropane-1,5′-pyrrolo[2,3-d]pyrimidin]-6′(7′H)-one] | 0.186 | ≥ 10 | ≥ 10 | ≥ 10 |
| O=C1N([C@@H]2CCC[C@@H](O)C2)c2nc(Nc3c[nH]nc3OCC3CC4(COC4)C3)ncc2C12CC2 [Example 54, 2′-((3-((2-oxaspiro[3.3]heptan-6-yl)methoxy)-1H-pyrazol-4-yl)amino)-7′-((1R,3R)-3-hydroxycyclohexyl)spiro[cyclopropane-1,5′-pyrrolo[2,3-d]pyrimidin]-6′(7′H)-one] | 0.134 | ≥ 10 | ≥ 10 | ≥ 10 |
| Cn1ncc(-c2n[nH]cc2Nc2ncc3c(n2)N([C@@H]2CCC[C@@H](O)C2)C(=O)C32CC2)c1Cl [Example 57, 2′-((5′-chloro-1′-methyl-1H,1′H-[3,4′-bipyrazol]-4-yl)amino)-7-((1R,3R)-3-hydroxycyclohexyl)spiro[cyclopropane-1,5′-pyrrolo[2,3-d]pyrimidin]-6′(7′H)-one] | 0.015 | ≥ 10 | 7.9 | 2.04 |
| CC#Cc1n[nH]cc1Nc1ncc2c(n1)N([C@@H]1CCC[C@@H](O)C1)C(=O)C21CC1 [Example 58, 7′-((1R,3R)-3-hydroxycyclohexyl)-2′-((3-(prop-1-yn-1-yl)-1H-pyrazol-4-yl)amino)spiro[cyclopropane-1,5′-pyrrolo[2,3-d]pyrimidin]-6′(7′H)-one] | 0.016 | ≥ 10 | 9.5 | 3.54 |
| O=C1N([C@@H]2CCC[C@@H](O)C2)c2nc(Nc3c[nH]nc3-c3ccncc3)ncc2C12CC2 [Example 59, 7′-((1R,3R)-3-hydroxycyclohexyl)-2′-((3-(pyridin-4-yl)-1H-pyrazol-4-yl)amino)spiro[cyclopropane-1,5′-pyrrolo[2,3-d]pyrimidin]-6′(7′H)-one] | 0.251 | ≥ 10 | ≥ 10 | ≥ 10 |
| O=C1N([C@@H]2CCC[C@@H](O)C2)c2nc(Nc3c[nH]nc3-c3ccccn3)ncc2C12CC2 [Example 60, 7′-((1R,3R)-3-hydroxycyclohexyl)-2′-((3-(pyridin-2-yl)-1H-pyrazol-4-yl)amino)spiro[cyclopropane-1,5′-pyrrolo[2,3-d]pyrimidin]-6′(7′H)-one] | 0.162 | ≥ 10 | ≥ 10 | ≥ 10 |
| O=C1N([C@@H]2CCC[C@@H](O)C2)c2nc(Nc3c[nH]nc3-c3cccnc3)ncc2C12CC2 [Example 61, 7′-((1R,3R)-3-hydroxycyclohexyl)-2′-((3-(pyridin-3-yl)-1H-pyrazol-4-yl)amino)spiro[cyclopropane-1,5′-pyrrolo[2,3-d]pyrimidin]-6′(7′H)-one] | 0.046 | 9.19 | 8.65 | ≥ 10 |
| Cc1c(-c2n[nH]cc2Nc2ncc3c(n2)N([C@@H]2CCC[C@@H](O)C2)C(=O)C32CC2)cnn1C(F)F [Example 62] | 0.017 | 1.83 | 2.3 | 4.23 |
| O=C1N([C@@H]2CCC[C@@H](O)C2)c2nc(Nc3c[nH]nc3-c3cnn4ccncc34)ncc2C12CC2 [Example 64, 7′-((1R,3R)-3-hydroxycyclohexyl)-2′-((3-(pyrazolo[1,5-a]pyrazin-3-yl)-1H-pyrazol-4-yl)amino)spiro[cyclopropane-1,5′-pyrrolo[2,3-d]pyrimidin]-6′(7′H)-one] | 0.012 | 6.49 | 4.7 | 2.19 |
